Measurements taken from ChEMBL document CHEMBL1201862, “PubChem BioAssay data set” (2004).
Activity calls are given as the source filed them.

Columns and labels:
INS1 = experiment: beta cell apoptosis inhibitors, cytokine rescue, dose response, luminescence, retest (AID 449756); format: functional, cell-based; conditions: Rattus norvegicus;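 also: cell death triggered by IL-1 beta plus TNF-alpha plus IFN-gamma mixture; protective hits raise ATP signal compared with cytokine alone wells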
[1] = Vero E6 cell cytotoxicity, dose response, cytotoxicity control for non-replicating M. tuberculosis project, secondary assay (AID 492998); format: functional, VeroE6; conditions: Vero C1008
[2] = microbe, parasite or virus in culture; format: functional; conditions: Mycobacterium tuberculosis
[3] = THP-1 cell cytotoxicity, dose response, cytotoxicity control for non-replicating M. tuberculosis project (AID 489025); format: functional
Nonstructural protein 1 = Nonstructural protein 1 (Influenza A virus, UniProt Q194T2); format: functional, Influenza A virus (A/California/07/2009(H1N1))
Nonstructural protein 1, sequence (Q194T2 whole entry): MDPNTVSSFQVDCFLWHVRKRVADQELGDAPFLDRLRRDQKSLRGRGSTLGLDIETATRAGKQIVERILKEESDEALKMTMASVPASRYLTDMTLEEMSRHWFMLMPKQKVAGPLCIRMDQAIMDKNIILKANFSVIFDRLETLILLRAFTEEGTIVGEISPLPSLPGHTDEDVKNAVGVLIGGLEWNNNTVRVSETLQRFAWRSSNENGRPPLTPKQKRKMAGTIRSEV

[4] = target: Lysine-specific demethylase 4C (Homo sapiens, UniProt Q9H3R0); experiment: GASC-1 (JMJD2C) histone demethylase inhibitors, dose response, biochemical, DELFIA europium, cherry-picked samples (AID 488835); format: functional
Lysine-specific demethylase 4C, sequence (Q9H3R0 whole entry): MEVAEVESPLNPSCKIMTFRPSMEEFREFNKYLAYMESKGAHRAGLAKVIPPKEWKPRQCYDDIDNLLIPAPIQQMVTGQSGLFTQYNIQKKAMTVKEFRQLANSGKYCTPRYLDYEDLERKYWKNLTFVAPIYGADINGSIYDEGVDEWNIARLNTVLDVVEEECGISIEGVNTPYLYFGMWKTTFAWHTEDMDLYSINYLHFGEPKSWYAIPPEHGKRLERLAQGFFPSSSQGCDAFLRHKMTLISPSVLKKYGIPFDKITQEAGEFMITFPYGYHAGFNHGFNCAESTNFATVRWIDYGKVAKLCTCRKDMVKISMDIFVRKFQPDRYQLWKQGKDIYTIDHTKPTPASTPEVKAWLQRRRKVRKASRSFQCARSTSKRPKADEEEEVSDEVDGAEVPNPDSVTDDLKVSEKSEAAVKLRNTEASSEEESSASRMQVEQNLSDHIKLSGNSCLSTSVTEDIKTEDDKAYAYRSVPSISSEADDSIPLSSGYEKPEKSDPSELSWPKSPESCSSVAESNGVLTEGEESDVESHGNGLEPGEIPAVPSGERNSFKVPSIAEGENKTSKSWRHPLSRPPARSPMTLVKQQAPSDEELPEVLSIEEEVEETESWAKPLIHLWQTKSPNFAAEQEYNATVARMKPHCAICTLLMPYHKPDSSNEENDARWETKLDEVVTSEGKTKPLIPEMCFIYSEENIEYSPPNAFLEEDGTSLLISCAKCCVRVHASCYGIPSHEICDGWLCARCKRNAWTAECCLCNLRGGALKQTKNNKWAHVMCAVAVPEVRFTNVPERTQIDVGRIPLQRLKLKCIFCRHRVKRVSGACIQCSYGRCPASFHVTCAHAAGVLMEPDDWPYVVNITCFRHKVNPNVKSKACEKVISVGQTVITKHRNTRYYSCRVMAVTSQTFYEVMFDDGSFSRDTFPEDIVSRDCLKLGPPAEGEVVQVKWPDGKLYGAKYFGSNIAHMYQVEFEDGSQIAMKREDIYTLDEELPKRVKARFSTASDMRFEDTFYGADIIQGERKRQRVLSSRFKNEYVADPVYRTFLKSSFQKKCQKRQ

BJ [5] = experiment: cytotoxicity toward BJ-TERT fibroblasts, dose response, cell-based, RAS-independent, luminescence (AID 1933); format: functional; conditions: Homo sapiens
[6] = target: Lysine-specific demethylase 4A (Homo sapiens, UniProt O75164); experiment: JMJD2A histone demethylase inhibitors, dose response, selectivity assay for GASC-1 inhibitor project, biochemical, DELFIA europium, cherry-picked samples (AID 488840)
Lysine-specific demethylase 4A, sequence (O75164 whole entry): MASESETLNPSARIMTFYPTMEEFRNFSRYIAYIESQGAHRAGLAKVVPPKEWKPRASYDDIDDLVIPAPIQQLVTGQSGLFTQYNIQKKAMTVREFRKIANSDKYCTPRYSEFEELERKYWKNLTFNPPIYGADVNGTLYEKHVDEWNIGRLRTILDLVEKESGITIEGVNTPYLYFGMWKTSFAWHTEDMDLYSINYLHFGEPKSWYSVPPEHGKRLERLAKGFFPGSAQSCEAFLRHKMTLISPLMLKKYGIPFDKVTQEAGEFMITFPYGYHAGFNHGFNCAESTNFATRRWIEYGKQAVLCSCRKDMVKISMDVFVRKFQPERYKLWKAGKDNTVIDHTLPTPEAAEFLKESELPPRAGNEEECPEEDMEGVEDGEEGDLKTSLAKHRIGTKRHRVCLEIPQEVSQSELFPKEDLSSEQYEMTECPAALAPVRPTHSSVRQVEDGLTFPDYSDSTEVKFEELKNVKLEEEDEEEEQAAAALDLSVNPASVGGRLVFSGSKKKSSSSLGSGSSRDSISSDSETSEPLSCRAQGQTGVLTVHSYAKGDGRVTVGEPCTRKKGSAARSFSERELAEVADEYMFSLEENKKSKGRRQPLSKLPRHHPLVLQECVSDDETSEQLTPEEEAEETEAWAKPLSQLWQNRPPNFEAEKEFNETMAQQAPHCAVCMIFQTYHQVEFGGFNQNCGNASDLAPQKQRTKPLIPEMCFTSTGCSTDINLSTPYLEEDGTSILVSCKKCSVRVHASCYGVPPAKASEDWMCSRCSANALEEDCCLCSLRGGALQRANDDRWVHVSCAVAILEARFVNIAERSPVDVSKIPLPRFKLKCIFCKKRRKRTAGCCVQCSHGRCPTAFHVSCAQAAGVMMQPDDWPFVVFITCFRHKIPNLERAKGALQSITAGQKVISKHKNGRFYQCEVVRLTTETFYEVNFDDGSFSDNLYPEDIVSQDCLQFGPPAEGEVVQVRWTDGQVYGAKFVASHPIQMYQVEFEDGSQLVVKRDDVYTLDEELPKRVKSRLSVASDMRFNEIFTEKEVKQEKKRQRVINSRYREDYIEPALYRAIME

BJ [7] = experiment: cells; format: functional, cell-based; conditions: Homo sapiens
cells = format: functional
[8] = cytotoxicity toward DRD oncogenic fibroblasts, dose response, cell-based, non-viral oncogenic, luminescence (AID 1934); format: functional; conditions: Homo sapiens
BJ [9] = experiment: cytotoxicity toward BJ-TERT-LT-ST fibroblasts, dose response, cell-based, RAS-independent, luminescence (AID 1935); format: functional; conditions: Homo sapiens;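 also: BJ fibroblasts immortalized with TERT plus LT and ST oncogenes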

N#C/C(N=Nc1ccccc1O)=N\Nc1ccccc1O
active: AC50 (INS1) 2.3 µM | CC50 [1] 7.05 µM | CC50 [2] 4.13 µM | CC50 [3] 3.15 µM | IC50 (Nonstructural protein 1) 10.9 µM | AC50 [4] 0.388 µM | EC50 (BJ [5]) 5.98 µM | AC50 [6] 3.37 µM | EC50 (BJ [7]) 7.91 µM | IC50 (cells) 1.29 µM | EC50 [8] 8.75 µM | EC50 (BJ [9]) 6.76 µM
